Data taken from patent US20240150705A1, “POLYPHENOL INFUSED PROBIOTICS AND METHODS FOR IMPROVED GUT SURVIVABILITY, PERSISTENCE AND COLONIZATION” (THE REGENTS OF THE UNIVERSITY OF CALIFORNIA, priority 2021, published 2024).
Entries after “also recorded” stand apart in the source; their conditions may differ.

Assays:
Assay type in all cases: cell-based
[1] = test system: L. paracasei (LP), Lactobacillus casei (LC) and L. rhamnosus (LR) probiotic cells; experiment: survivability during simulated gastrointestinal treatments (SGF 2 h, then SIF 2 h); conditions: for Stability of probiotics against gastric pH and bile salt tolerance: infusion in cells
Experimental: To illustrate the role of phenolic bioactives in influencing cell viability, changes in the intracellular pH and interactions of bile salts with cells were measured after simulated gastric and intestinal treatments respectively. Survivability of cells with and without infused plant extracts were evaluated during simulated gastrointestinal treatments under anaerobic conditions. Simulated gastric fluids (SGF, pH=3) were prepared by adding 0.5% w/v sodium chloride, hydrochloric acid to maintain pH and 3.2 mg/ml pepsin. 1 g of selected bacterial cells with and without infused plant extracts were separately incubated in SGF for 2 h at 37° C. and 100 rpm. After gastric treatment, the cells were pelleted down by centrifuging at 5000 rpm for 2 min and then resuspended in the simulated intestinal fluids (SIF) containing 3.33 mg/mL calcium chloride, 5 g/L sodium chloride, 10 mM bile salts and pancreatin (100 U/ml) in 0.025 M potassium phosphate buffer (pH=7). Digestion mixtures were incubated at 37° C. and 100 rpm for 2 h. After the simulated gastric and intestinal digestions, both the phenolic infused cells and control cells were isolated by centrifuging at 5000 rpm for 2 min and will be washed three times with autoclaved 1×PBS. Viable cells were enumerated after serial dilutions on selective media plates. The viability of cells were measured in triplicates and the results of these measurements were averaged. Live probiotic cells must reach the colon alive for colonization and related health benefits. These figures plot survivability of L. paracasei (LP), Lactobacillus casei (LC) and L. rhamnosus (LR) probiotic cells with and without infused plant extracts during simulated gastrointestinal treatments with simulated gastric fluid (SGF) for 2 h, followed by the treatment with simulated intestinal fluid (SIF) for next 2 h.

L. casei cells = experiment: survivability of model probiotic L. casei cells loaded with other polyphenols or mixed with catechin during simulated digestion (FIG. 6); conditions: for survivability of probiotic bacteria during simulated gastro-intestinal digestion: L. casei cells infused
Experimental: To illustrate the role of phenolic bioactives in influencing cell viability, changes in the intracellular pH and interactions of bile salts with cells were measured after simulated gastric and intestinal treatments respectively. Survivability of cells with and without infused plant extracts were evaluated during simulated gastrointestinal treatments under anaerobic conditions. Simulated gastric fluids (SGF, pH=3) were prepared by adding 0.5% w/v sodium chloride, hydrochloric acid to maintain pH and 3.2 mg/ml pepsin. 1 g of selected bacterial cells with and without infused plant extracts were separately incubated in SGF for 2 h at 37° C. and 100 rpm.
After gastric treatment, the cells were pelleted down by centrifuging at 5000 rpm for 2 min and then resuspended in the simulated intestinal fluids (SIF) containing 3.33 mg/mL calcium chloride, 5 g/L sodium chloride, 10 mM bile salts and pancreatin (100 U/ml) in 0.025 M potassium phosphate buffer (pH=7). Digestion mixtures were incubated at 37° C. and 100 rpm for 2 h. After the simulated gastric and intestinal digestions, both the phenolic infused cells and control cells were isolated by centrifuging at 5000 rpm for 2 min and will be washed three times with autoclaved 1×PBS. Viable cells were enumerated after serial dilutions on selective media plates. The viability of cells were measured in triplicates and the results of these measurements were averaged.
Survivability of probiotic cells was not improved if polyphenols were not infused in cells but only added in the same amount to the gastric fluid.

[2] = test system: L. casei, L. paracasei and L. rhamnosus cells; experiment: metabolic activity by resazurin fluorescence assay after simulated gastric fluid; conditions: infused L. casei cells, SGF
Experimental: For this assay, 6 log CFUs/ml of cells (with and without infused phenolic actives) in selective culture media was prepared. 1 mL of each of the samples were added to a flat bottom 24 well culture plates and 50 μM of resazurin was added to each well plates. Plates were sealed with PCR sealing films inside anerobic cabinet to maintain in-situ anaerobic conditions and were immediately incubated at 37° C. for 16 h. Fluorescence data was collected each 5 min at 580 nm (λex=530 nm). The reduction of resazurin was evaluated by the assay. After cells were treated with simulated gastric fluid, 1 mL of each samples was centrifugated (16,000×g for 2 min) and resuspended in 1 mL of MRS broth containing 50 μM of resazurin. Then, plate was incubated at 37° C. for 16 h and read each 5 min (530 nm/580 nm). […] The reduction of resazurin to resorufin (fluorescent form) was measured to correlate with the metabolic activity of three types of probiotic cells with different infused polyphenols and conditions, as shown in FIG. 7 through FIG. 20. The production of resorufin increases the intensity of fluorescence, while the reduction of the peak is related with the production of hydroresorufin.

Molecule	Stability of probiotics against gastric pH and bile salt tolerance [1]	survivability of probiotic bacteria during simulated gastro-intestinal digestion (L. casei cells)	metabolic activity after simulated gastric treatment [2]	survivability / stability during simulated gastro-intestinal digestion ([1]; infused cells, SGF then SIF)	survivability of probiotic bacteria during simulated digestion (L. casei cells; simply mixed with cells or added to gastric fluid, not infused)
COc1cc(/C=C/C(=O)CC(=O)/C=C/c2ccc(O)c(OC)c2)ccc1O [curcumin]	enhanced	Enhanced stability; also recorded: significantly enhance survivability	further suppressed		
O=c1c(O)c(-c2ccc(O)c(O)c2)oc2cc(O)ccc12 [fisetin]	enhanced	Enhanced stability; also recorded: significantly enhance survivability			
catechin	enhanced			stable; also recorded: maintained their population	no significant improvement in survivability
